Earlier results in patent publication US20200276090A1, “TOPICAL PRODUCTS WITH A BIPHASIC SYSTEM” (CMED AESTHETICS s.r.l., priority 2017, published 2020).
Where two headings read alike, the source gives them in different places.

Conditions: after 90 days

O=C(O)C(Cl)(Cl)Cl [TCA, trichloroacetic acid]
Degradation of TCA (TCA in aqueous solution alone): 12.6% | Degradation of TCA (in the presence of a high percentage of stabilizing agents, on average): 2-3% | Degradation of TCA (in the presence of a low percentage of stabilizing agents, on average): 4-5%
